Literature values, collected in patent US6558704B1, “Process for preparing pellets containing up to 90 wt.% of a pharmaceutical active ingredient” (Gruenenthal GmbH, priority 1999, dated 2003).
Structures can show the parent of a compound that is named as a salt.

| SMILES | solubility in water [mg/mL] |
| --- | --- |
| CN(C)CCCN1c2ccccc2Sc2ccc(Cl)cc21 [chlorpromazine hydrochloride] | 2500 |
| Cc1c(N(C)CS(=O)(=O)[O-])c(=O)n(-c2ccccc2)n1C.[Na+] [metamizol-Na] | > 1000 |
